The values that follow come from patent US8969552B2, “Arylsulfonylmethyl or arylsulfonamide substituted aromatic compounds suitable for treating disorders that respond to modulation of the dopamine D3 receptor” (AbbVie Deutschland GmbH & Co. KG, priority 2004, dated 2015).

The target of experiment [1] is T1, human dopamine D3 receptors (Homo sapiens, UniProt P35462).
T1 construct: expressed in transfected cells; membranes
Briefly: Dopamine D3 receptor binding, [125I]-iodosulpride displacement. To be noted: for Ki: membranes of HEK-293 cells stably expressing human D3 receptor, 0.1 nM [125I]-iodosulpride, 25° C., 60 minutes; for Ki(D2)*/Ki(D3)*: selectivity ratio of receptor binding constants D2 versus D3. The method, then:
(§1) The substance to be tested was either dissolved in methanol/Chremophor® (BASF-AG) or in dimethyl sulfoxide and then diluted with water to the desired concentration.
(§2) Each assay mixture was run in triplicate.
The incubation buffer contained 50 mM tris, 120 mM NaCl, 5 mM KCl, 2 mM CaCl2, 2 mM MgCl2 and 0.1% bovine serum albumin, 10 μM quinolone and 0.1% ascorbic acid (prepared fresh daily). The buffer was adjusted to pH 7.4 with HCl.
(§3) Measurement and Analysis:
(§4) After having been incubated at 25° C. for 60 minutes, the assay mixtures were filtered through a Whatman GF/B glass fiber filter under vacuum using a cell collecting device. The filters were transferred to scintillation viols using a filter transfer system. After 4 ml of Ultima Gold® (Packard) have been added, the samples were shaken for one hour and the radioactivity was then counted in a Beta-Counter (Packard, Tricarb 2000 or 2200CA). The cpm values were converted into dpm using a standard quench series and the program belonging to the instrument.
(§5) The inhibition curves were analyzed by means of iterative nonlinear regression analysis using the Statistical Analysis System (SAS) which is similar to the “LIGAND” program described by Munson and Rodbard.
(§6) The results of the receptro binding studies are expressed as receptor binding constants Ki(D2) and Ki(D3), respectively, as herein before described, and given in table 2.

The target of experiment [2] is T2, human dopamine D2L receptors (long isoform) (Homo sapiens, UniProt P14416).
T2 construct: expressed in transfected cells; membranes
Description: Dopamine D2L receptor binding, [125I] iodospiperone displacement. To be noted: membranes of HEK-293 cells stably expressing human D2L receptor; 0.01 nM [125I] iodospiperone; 25° C., 60 minutes; read-out: Ki(D2)*. The method, then: as §1, §2
The incubation buffer contained 50 mM tris, 120 mM NaCl, 5 mM KCl, 2 mM CaCl2, 2 mM MgCl2 and 0.1% bovine serum albumin. The buffer was adjusted to pH 7.4 with HCl.
as §3, §4, §5, §6

T1 sequence (P35462 whole entry): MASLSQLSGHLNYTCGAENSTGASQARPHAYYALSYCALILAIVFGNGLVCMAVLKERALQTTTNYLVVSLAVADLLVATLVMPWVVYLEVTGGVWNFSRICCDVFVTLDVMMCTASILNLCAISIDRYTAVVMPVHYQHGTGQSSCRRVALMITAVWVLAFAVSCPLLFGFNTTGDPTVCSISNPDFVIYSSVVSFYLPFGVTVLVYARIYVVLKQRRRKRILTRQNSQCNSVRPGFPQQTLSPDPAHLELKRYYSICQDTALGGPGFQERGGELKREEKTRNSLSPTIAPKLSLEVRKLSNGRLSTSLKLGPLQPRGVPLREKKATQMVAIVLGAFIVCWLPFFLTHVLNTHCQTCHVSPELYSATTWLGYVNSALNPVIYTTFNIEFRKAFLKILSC
T2 sequence (P14416 whole entry, canonical isoform): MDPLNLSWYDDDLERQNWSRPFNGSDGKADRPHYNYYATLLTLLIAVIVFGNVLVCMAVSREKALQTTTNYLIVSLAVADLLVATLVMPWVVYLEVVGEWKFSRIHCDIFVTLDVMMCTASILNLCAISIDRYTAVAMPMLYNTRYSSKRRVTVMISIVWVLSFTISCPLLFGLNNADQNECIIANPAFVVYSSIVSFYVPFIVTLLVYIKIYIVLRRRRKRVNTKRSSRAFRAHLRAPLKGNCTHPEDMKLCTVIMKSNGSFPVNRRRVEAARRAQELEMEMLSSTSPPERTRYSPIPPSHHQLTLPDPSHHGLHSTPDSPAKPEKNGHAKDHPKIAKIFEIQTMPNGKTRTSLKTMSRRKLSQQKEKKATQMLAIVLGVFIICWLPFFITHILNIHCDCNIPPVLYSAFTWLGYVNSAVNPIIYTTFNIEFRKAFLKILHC

For the molecule `CCCN[C@H]1CCc2cc(N(C)S(=O)(=O)c3ccc(C(C)C)cc3)ccc2C1` [Example 10, 4-Isopropyl-N-methyl-N—((S)-6-propylamino-5,6,7,8-tetrahydro-naphthalen-2-yl)benzenesulfonamide], the inhibitory constant (Ki) in experiment [1] came to 8.2 nM; in experiment [2] it was 238 nM. Besides, the “Ki(D2)*/Ki(D3)*” value in experiment [1] came out at 29.
For `CCCN[C@H]1CCc2cc(NS(=O)(=O)c3ccc(-c4ccon4)s3)ccc2C1` [Example 43, 5-Isoxazol-3-yl-thiophene-2-sulfonic acid ((S)-6-propylamino-5,6,7,8-tetrahydro-naphthalen-2-yl)-amide], in that order: 30.7 nM, 3480 nM and 113.
Take `CCCN[C@@H]1CCc2ccc(NS(=O)(=O)c3ccc(C(C)C)cc3)cc2C1` [Example 2, (R)-4-Isopropyl-N—((R)-7-propylamino-5,6,7,8-tetrahydro-naphthalen-2-yl)benzenesulfonamide]: in experiment [1], the Ki worked out at 14 nM and the “Ki(D2)*/Ki(D3)*” value worked out at 32. Besides, in experiment [2], the inhibitory constant (Ki) was determined as 442 nM.
For the molecule `C=CCN1CCC[C@H]2c3cc(NS(=O)(=O)c4ccc(C(C)C)cc4)ccc3CC[C@@H]21` [Example 20, N-((4aS,10bS)-4-Allyl-1,2,3,4,4a,5,6,10b-octahydro-benzo[f]quinolin-9-yl)-4-isopropylbenzenesulfonamide], in experiment [1], the Ki was 7.5 nM and the “Ki(D2)*/Ki(D3)*” value is reported as 45. Further, the inhibition constant Ki in experiment [2] turned out to be 339 nM.
As for `CCCN[C@H]1CCc2cc(NS(=O)(=O)c3ccc(C(C)C(F)(F)F)cc3)ccc2C1` (mixture of isomers) [Example 40, N—((S)-6-Propylamino-5,6,7,8-tetrahydro-naphthalen-2-yl)-4-(2,2,2-trifluoro-1-methyl-ethyl)benzenesulfonamide-racemate], in experiment [1], the inhibition constant (Ki) was found to be 1.4 nM and the “Ki(D2)*/Ki(D3)*” value is reported as 221. Besides, the Ki in experiment [2] is 309 nM.
For `CCCN[C@H]1CCc2cc(NS(=O)(=O)c3ccc([C@@H](C)C(F)(F)F)cc3)ccc2C1` [Example 41, N—((S)-6-Propylamino-5,6,7,8-tetrahydro-naphthalen-2-yl)-4-((R)-2,2,2-trifluoro-1-methylethyl)-benzenesulfonamide], in that order: 12.2 nM, 101 and 1230 nM.
For `CCCN[C@H]1CCc2cc(NS(=O)(=O)c3ccc(-n4cccn4)cc3)ccc2C1.Cl` [Example 76, N—((S)-6-Propylamino-5,6,7,8-tetrahydro-naphthalen-2-yl)-4-pyrazol-1-ylbenzenesulfonamide, hydrochloride], in that order: 8.62 nM, 84 and 728 nM.
With `C=CCN1CCC[C@H]2c3ccc(NS(=O)(=O)c4ccc(C(C)C)cc4)cc3CC[C@@H]21` [Example 19, N-((4aS,10bS)-4-Allyl-1,2,3,4,4a,5,6,10b-octahydro-benzo[f]quinolin-8-yl)-4-isopropylbenzenesulfonamide], in experiment [1], affinity was put at a Ki of 2.5 nM and the “Ki(D2)*/Ki(D3)*” value is on record as 21. In addition, the inhibitory constant (Ki) in experiment [2] is 51 nM.
As for `CCCNC1CCc2cc(NS(=O)(=O)c3ccc(C(C)C)cc3)cnc2C1` (stereo not drawn) [Example 15, 4-Isopropyl-N-(7-propylamino-5,6,7,8-tetrahydro-quinolin-3-yl)-benzenesulfonamide], the Ki in experiment [1] stood at 11.3 nM; in experiment [2] it was 476 nM. The “Ki(D2)*/Ki(D3)*” value in experiment [1] was 42.
In the case of `CCCN(CCC)[C@@H]1CCc2cc(NS(=O)(=O)c3ccc(C(C)C)cc3)ccc2C1.Cl` [Example 29, N—((R)-6-Dipropylamino-5,6,7,8-tetrahydro-naphthalen-2-yl)-4-isopropyl-benzenesulfonamide, hydrochloride], in experiment [1], the Ki is 0.37 nM and the “Ki(D2)*/Ki(D3)*” value is reported as 4. In addition, the inhibition constant Ki in experiment [2] was 1.39 nM.
For `CCCN[C@H]1CCc2cc(NS(=O)(=O)c3ccc(N4CCOCC4)cc3)ccc2C1` [Example 45, 4-Morpholin-4-yl-N—((S)-6-propylamino-5,6,7,8-tetrahydro-naphthalen-2-yl)benzenesulfonamide], in that order: 13.9 nM, 94 and 1310 nM.
As to `CCCN[C@H]1CCc2cc(NS(=O)(=O)c3ccc(N4CC[C@@H](F)C4)cc3)ccc2C1` [Example 44, 4-((R)-3-Fluoro-pyrrolidin-1-yl)-N—((S)-6-propylamino-5,6,7,8-tetrahydro-naphthalen-2-yl)benzenesulfonamide], the inhibitory constant (Ki) in experiment [1] turned out to be 0.62 nM; in experiment [2] it was 258 nM. The “Ki(D2)*/Ki(D3)*” value in experiment [1] is recorded as 416.
`CCCN[C@H]1CCc2cc(NS(=O)(=O)c3ccc(-c4cnco4)s3)ccc2C1` [Example 38, 5-Oxazol-5-yl-thiophene-2-sulfonic acid ((S)-6-propylamino-5,6,7,8-tetrahydro-naphthalen-2-yl)-amide]: in experiment [1], the affinity, expressed as Ki, was 4.81 nM and the “Ki(D2)*/Ki(D3)*” value was 151. Moreover, in experiment [2], the Ki came out at 727 nM.
In the case of `C=CCN[C@@H]1CCc2cc(NS(=O)(=O)c3ccc(C(C)C)cc3)ccc2C1.Cl` [Example 6, N—((R)-6-Allylamino-5,6,7,8-tetrahydro-naphthalen-2-yl)-4-isopropyl-benzenesulfonamide, hydrochloride], in experiment [1], the Ki was 0.28 nM and the “Ki(D2)*/Ki(D3)*” value was 52. The Ki in experiment [2] came to 14.5 nM.
In the case of `C=CCN[C@H]1CCc2cc(N(C)S(=O)(=O)c3ccc(C(C)C)cc3)ccc2C1` [Example 9, N—((S)-6-Allylamino-5,6,7,8-tetrahydro-naphthalen-2-yl)-4-isopropyl-N-methylbenzenesulfonamide], in experiment [1], the Ki worked out at 15.3 nM and the “Ki(D2)*/Ki(D3)*” value came out at 27. In addition, the Ki in experiment [2] was 416 nM.
With `CCCN1CCC[C@@H]2Cc3cc(NS(=O)(=O)c4ccc(C(C)C)cc4)ccc3C[C@H]21` (relative stereo) [Example 23, trans-4-Isopropyl-N-(1-propyl-1,2,3,4,4a,5,10,10a-octahydro-benzo[g]quinolin-7-yl)benzenesulfonamide], the inhibitory constant (Ki) stood at 2.3 nM in experiment [1] and 116 nM in experiment [2]. For the same molecule, the “Ki(D2)*/Ki(D3)*” value in experiment [1] is reported as 50.
